According to patent US20230365592A1 (Agios Pharmaceuticals, Inc., priority 2022, published 2023):

The compounds below were run against T1, human PAH with the R408W mutation (Homo sapiens, UniProt P00439, R408W) (assay: Cell Based Phenylalanine Flux Assay). Details: A375 cells expressing human R408W PAH; 24 hrs compound incubation; 13C-Tyrosine by LC-MS; average where tested multiple times; read-out: AC50.
T1 construct: expressed in transfected cells
T1 sequence (P00439 1-452 R408W): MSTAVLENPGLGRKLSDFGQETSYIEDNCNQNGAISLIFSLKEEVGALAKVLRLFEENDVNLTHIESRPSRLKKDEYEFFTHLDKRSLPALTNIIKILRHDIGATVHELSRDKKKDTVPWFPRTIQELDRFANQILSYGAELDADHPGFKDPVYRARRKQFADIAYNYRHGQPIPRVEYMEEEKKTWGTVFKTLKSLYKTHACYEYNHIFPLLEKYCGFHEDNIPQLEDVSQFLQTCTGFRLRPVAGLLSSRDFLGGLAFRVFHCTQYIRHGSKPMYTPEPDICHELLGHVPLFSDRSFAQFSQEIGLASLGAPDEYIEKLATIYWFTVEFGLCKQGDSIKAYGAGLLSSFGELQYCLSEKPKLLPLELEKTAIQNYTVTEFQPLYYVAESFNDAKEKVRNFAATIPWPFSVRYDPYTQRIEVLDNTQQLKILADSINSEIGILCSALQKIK
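Also: after compound treatment, cells received sepiapterin plus isotope-labelled Phenylalanine for 4 hours, then labelled Tyrosine in the medium was quantified, 10-point 2-fold dilution series run in duplicate.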

Compound | AC50 [µM]
O=C(c1cnn2cc(C3CC3)ccc12)N1CCc2[nH]cnc2[C@H]1c1cc2c(C(F)(F)F)cccn2n1 [Example 1716, (S)-(6-cyclopropylpyrazolo[1,5-a]pyridin-3-yl)(4-(4-(trifluoromethyl)pyrazolo[1,5-a]pyridin-2-yl)-6,7-dihydro-1H-imidazo[4,5-c]pyridin-5(4H)-yl)methanone] | < 0.5
COc1cccn2nc([C@H]3c4nc[nH]c4CCN3C(=O)c3nnc(-c4ccn(C(F)F)n4)o3)cc12 [Example 1722, (R)-(5-(1-(difluoromethyl)-1H-pyrazol-3-yl)-1,3,4-oxadiazol-2-yl)(4-(4-methoxypyrazolo[1,5-a]pyridin-2-yl)-6,7-dihydro-1H-imidazo[4,5-c]pyridin-5(4H)-yl)methanone] | > 5
COc1cccn2nc([C@@H]3c4nc[nH]c4CCN3C(=O)c3nnc(-c4ccn(C(F)F)n4)o3)cc12 [Example 1723, (S)-(5-(1-(difluoromethyl)-1H-pyrazol-3-yl)-1,3,4-oxadiazol-2-yl)(4-(4-methoxypyrazolo[1,5-a]pyridin-2-yl)-6,7-dihydro-1H-imidazo[4,5-c]pyridin-5(4H)-yl)methanone] | 0.5 to 1
CC(C)(F)c1nnc(C(=O)N2CCc3[nH]cnc3[C@H]2c2cc3c(OC(F)(F)F)cccn3n2)o1 [Example 1726, (S)-(5-(2-fluoropropan-2-yl)-1,3,4-oxadiazol-2-yl)(4-(4-(trifluoromethoxy)pyrazolo[1,5-a]pyridin-2-yl)-6,7-dihydro-1H-imidazo[4,5-c]pyridin-5(4H)-yl)methanone] | 0.5 to 1
CC(C)(F)c1nnc(C(=O)N2CCc3[nH]cnc3[C@H]2c2cc3c(OC(F)F)cccn3n2)o1 [Example 1728, (S)-(4-(4-(difluoromethoxy)pyrazolo[1,5-a]pyridin-2-yl)-6,7-dihydro-1H-imidazo[4,5-c]pyridin-5(4H)-yl)(5-(2-fluoropropan-2-yl)-1,3,4-oxadiazol-2-yl)methanone] | 0.5 to 1
CC(C)(F)c1nnc(C(=O)N2CCc3[nH]cnc3[C@@H]2c2cc3c(OC(F)F)cccn3n2)o1 [Example 1729, (R)-(4-(4-(difluoromethoxy)pyrazolo[1,5-a]pyridin-2-yl)-6,7-dihydro-1H-imidazo[4,5-c]pyridin-5(4H)-yl)(5-(2-fluoropropan-2-yl)-1,3,4-oxadiazol-2-yl)methanone] | > 5
O=C(c1cnn2ccccc12)N1CCc2[nH]cnc2[C@H]1c1cc2c(C(F)F)cccn2n1 [Example 1730, (S)-(4-(4-(difluoromethyl)pyrazolo[1,5-a]pyridin-2-yl)-6,7-dihydro-1H-imidazo[4,5-c]pyridin-5(4H)-yl)(pyrazolo[1,5-a]pyridin-3-yl)methanone] | < 0.5
O=C(c1cnn2ccccc12)N1CCc2[nH]cnc2[C@@H]1c1cc2c(C(F)F)cccn2n1 [Example 1731, (R)-(4-(4-(difluoromethyl)pyrazolo[1,5-a]pyridin-2-yl)-6,7-dihydro-1H-imidazo[4,5-c]pyridin-5(4H)-yl)(pyrazolo[1,5-a]pyridin-3-yl)methanone] | > 5
FC(F)c1nnc(N2CCc3[nH]cnc3[C@H]2c2cc3c(C(F)F)cccn3n2)o1 [Example 1733, (S)-2-(difluoromethyl)-5-(4-(4-(difluoromethyl)pyrazolo[1,5-a]pyridin-2-yl)-6,7-dihydro-1H-imidazo[4,5-c]pyridin-5(4H)-yl)-1,3,4-oxadiazole] | < 0.5
FC(F)c1nnc(N2CCc3[nH]cnc3[C@H]2c2cc3c(C(F)(F)F)cccn3n2)o1 [Example 1735, (S)-2-(difluoromethyl)-5-(4-(4-(trifluoromethyl)pyrazolo[1,5-a]pyridin-2-yl)-6,7-dihydro-1H-imidazo[4,5-c]pyridin-5(4H)-yl)-1,3,4-oxadiazole] | < 0.5
Fc1cccn2nc([C@@H]3c4nc[nH]c4CCN3c3nnc(C(F)F)o3)cc12 [Example 1737, (S)-2-(difluoromethyl)-5-(4-(4-fluoropyrazolo[1,5-a]pyridin-2-yl)-6,7-dihydro-1H-imidazo[4,5-c]pyridin-5(4H)-yl)-1,3,4-oxadiazole] | 0.5 to 1
FC(F)c1nnc(N2CCc3[nH]cnc3[C@H]2c2cc3c(Cl)cccn3n2)o1 [Example 1739, (S)-2-(4-(4-chloropyrazolo[1,5-a]pyridin-2-yl)-6,7-dihydro-1H-imidazo[4,5-c]pyridin-5(4H)-yl)-5-(difluoromethyl)-1,3,4-oxadiazole] | < 0.5
Cc1cccc2cc([C@H]3c4nc[nH]c4CCN3c3nnc(C(F)F)o3)nn12 [Example 1740, (R)-2-(difluoromethyl)-5-(4-(7-methylpyrazolo[1,5-a]pyridin-2-yl)-6,7-dihydro-1H-imidazo[4,5-c]pyridin-5(4H)-yl)-1,3,4-oxadiazole] | > 5
Cc1cccc2cc([C@@H]3c4nc[nH]c4CCN3c3nnc(C(F)F)o3)nn12 [Example 1741, (S)-2-(difluoromethyl)-5-(4-(7-methylpyrazolo[1,5-a]pyridin-2-yl)-6,7-dihydro-1H-imidazo[4,5-c]pyridin-5(4H)-yl)-1,3,4-oxadiazole] | 0.5 to 1
CN(C)c1ccc2c(C(=O)N3CCc4[nH]cnc4[C@@H]3c3cc4c(C(F)(F)F)cccn4n3)cnn2c1 [Example 1747, (R)-(6-(dimethylamino)pyrazolo[1,5-a]pyridin-3-yl)(4-(4-(trifluoromethyl)pyrazolo[1,5-a]pyridin-2-yl)-6,7-dihydro-1H-imidazo[4,5-c]pyridin-5(4H)-yl)methanone] | > 5
FC(F)(F)c1cnc(N2CCc3[nH]cnc3[C@H]2c2cc3ccccn3n2)nc1 [Example 1752, (S)-4-(pyrazolo[1,5-a]pyridin-2-yl)-5-(5-(trifluoromethyl)pyrimidin-2-yl)-4,5,6,7-tetrahydro-1H-imidazo[4,5-c]pyridine] | < 0.5
Cc1cccn2nc([C@@H]3c4nc[nH]c4CCN3c3ncc(C(F)(F)F)cn3)cc12 [Example 1754, (S)-4-(4-methylpyrazolo[1,5-a]pyridin-2-yl)-5-(5-(trifluoromethyl)pyrimidin-2-yl)-4,5,6,7-tetrahydro-1H-imidazo[4,5-c]pyridine] | < 0.5
Cc1cccn2nc([C@H]3c4nc[nH]c4CCN3c3ncc(C(F)(F)F)cn3)cc12 [Example 1755, (R)-4-(4-methylpyrazolo[1,5-a]pyridin-2-yl)-5-(5-(trifluoromethyl)pyrimidin-2-yl)-4,5,6,7-tetrahydro-1H-imidazo[4,5-c]pyridine] | > 5

Results, then the compound that gave them:

AC50 [µM] | Compound
< 0.5 | Cc1ccc2c(C(=O)N3CCc4[nH]cnc4[C@H]3c3cc4c(Cl)cccn4n3)cnn2c1 [Example 1714, (S)-(4-(4-chloropyrazolo[1,5-a]pyridin-2-yl)-6,7-dihydro-1H-imidazo[4,5-c]pyridin-5(4H)-yl)(6-methylpyrazolo[1,5-a]pyridin-3-yl)methanone]
0.5 to 1 | COc1ccc2c(C(=O)N3CCc4[nH]cnc4[C@H]3c3cc4cccc(C)n4n3)cnn2c1 [Example 1718, (S)-(6-methoxypyrazolo[1,5-a]pyridin-3-yl)(4-(7-methylpyrazolo[1,5-a]pyridin-2-yl)-6,7-dihydro-1H-imidazo[4,5-c]pyridin-5(4H)-yl)methanone]
1 to 5 | COc1ccc2c(C(=O)N3CCc4[nH]cnc4[C@@H]3c3cc4cccc(C)n4n3)cnn2c1 [Example 1719, (R)-(6-methoxypyrazolo[1,5-a]pyridin-3-yl)(4-(7-methylpyrazolo[1,5-a]pyridin-2-yl)-6,7-dihydro-1H-imidazo[4,5-c]pyridin-5(4H)-yl)methanone]
0.5 to 1 | COc1ccc2c(C(=O)N3CCc4[nH]cnc4[C@H]3c3cc4cccc(F)n4n3)cnn2c1 [Example 1720, (S)-(4-(7-fluoropyrazolo[1,5-a]pyridin-2-yl)-6,7-dihydro-1H-imidazo[4,5-c]pyridin-5(4H)-yl)(6-methoxypyrazolo[1,5-a]pyridin-3-yl)methanone]
< 0.5 | O=C(c1cnn2cc(C3CC3)ccc12)N1CCc2[nH]cnc2[C@H]1c1cc2c(C(F)F)cccn2n1 [Example 1742, (S)-(6-cyclopropylpyrazolo[1,5-a]pyridin-3-yl)(4-(4-(difluoromethyl)pyrazolo[1,5-a]pyridin-2-yl)-6,7-dihydro-1H-imidazo[4,5-c]pyridin-5(4H)-yl)methanone]
1 to 5 | O=C(c1cnn2cc(C3CC3)ccc12)N1CCc2[nH]cnc2[C@@H]1c1cc2c(C(F)F)cccn2n1 [Example 1743, (R)-(6-cyclopropylpyrazolo[1,5-a]pyridin-3-yl)(4-(4-(difluoromethyl)pyrazolo[1,5-a]pyridin-2-yl)-6,7-dihydro-1H-imidazo[4,5-c]pyridin-5(4H)-yl)methanone]
1 to 5 | O=C(c1cnn2cc(C3CC3)ccc12)N1CCc2[nH]cnc2[C@H]1c1cc2cccc(Cl)n2n1 [Example 1744, (S)-(4-(7-chloropyrazolo[1,5-a]pyridin-2-yl)-6,7-dihydro-1H-imidazo[4,5-c]pyridin-5(4H)-yl)(6-cyclopropylpyrazolo[1,5-a]pyridin-3-yl)methanone]
> 5 | O=C(c1cnn2cc(C3CC3)ccc12)N1CCc2[nH]cnc2[C@@H]1c1cc2cccc(Cl)n2n1 [Example 1745, (R)-(4-(7-chloropyrazolo[1,5-a]pyridin-2-yl)-6,7-dihydro-1H-imidazo[4,5-c]pyridin-5(4H)-yl)(6-cyclopropylpyrazolo[1,5-a]pyridin-3-yl)methanone]
